The results in this text go back to US7417045B2, “Heterocyclic substituted pyridine or phenyl compounds with CXCR3 antagonist activity” (Schering Corporation, priority 2005, dated 2008).

In the test the target is T1, human CXCR3 (N-delta 4) (Homo sapiens, UniProt P49682).
T1 construct: CD8 leader (N); Flag tag; expressed in transfected cells; membranes
T1 sequence (P49682 5-368 limits assumed): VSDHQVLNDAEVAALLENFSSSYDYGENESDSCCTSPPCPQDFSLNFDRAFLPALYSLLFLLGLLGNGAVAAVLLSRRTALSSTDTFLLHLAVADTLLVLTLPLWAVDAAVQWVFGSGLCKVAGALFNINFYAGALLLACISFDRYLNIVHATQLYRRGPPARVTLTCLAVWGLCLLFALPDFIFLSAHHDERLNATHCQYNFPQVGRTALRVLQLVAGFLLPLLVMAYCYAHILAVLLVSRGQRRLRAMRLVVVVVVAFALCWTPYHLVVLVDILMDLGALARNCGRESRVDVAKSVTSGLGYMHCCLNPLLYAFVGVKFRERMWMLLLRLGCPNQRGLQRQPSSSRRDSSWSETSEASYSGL
The test is described as follows: Human CXCR3 (N-delta 4) Scintillation Proximity Assay (SPA), [125I] IP-10 binding. As to conditions: IC50 rating; [125I] IP-10 displacement, Ba/F3-hCXCR3 (N-delta 4) membranes. The method in brief:
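Membranes from Ba/F3 cells stably expressing Flag-tagged human CXCR3 (N-delta 4), 2 μg per point, precoupled 1 h to WGA SPA beads in HEPES buffer with CaCl2, MgCl2, NaCl, 1.0% BSA. Compounds titrated with 25 pM [125I] IP-10; bound label counted after 3 hr at room temperature.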
A general note: SPA uses beads or plates that emit light when radiolabelled molecules are held near them.
The term IC50 denotes the point on the concentration scale where inhibition reaches its midpoint. A higher IC50 goes with a need for much substance. The compound `CC[C@H]1CN(c2ncc(-c3ncc[nH]3)cc2Cl)CCN1C1CCN(C(=O)c2ccc(Cl)cc2I)CC1` [Compound 86] yielded an IC50 of under 25 nM.
With `CC[C@H]1CN(c2ncc(-c3ncc[nH]3)cc2Cl)CCN1C1CCN(Cc2ccc(C#CCN(C)C)cc2)CC1` [Compound 100], the IC50 is under 25 nM.
To `CC[C@H]1CN(c2ncc(C3=NCCN3)cc2Cl)CCN1C1CCN(Cc2ccc(Cl)cc2C(=O)NCCO)CC1` [Compound 94] belongs under 25 nM; to `CC[C@H]1CN(c2ncc(-c3nnc(C(C)(C)O)o3)cc2Cl)CCN1C1CCN(Cc2ccc(Cl)cc2F)CC1` [Compound 98], under 25 nM; to `C[C@H]1CN(c2ncc(C3=NCCN3)cc2Cl)CCN1C1CCN(Cc2ccc(Cl)cc2)CC1` [Compound 65], under 25 nM.
To `CC[C@H]1CN(c2ncc(C3=NC(C)CN3)cc2Cl)CCN1C1CCN(C(=O)c2ccc(Cl)cc2)CC1` (some centres unmarked) [Compound 72] belongs under 25 nM.
To `CC[C@H]1CN(c2ncc(C3=NCCN3)cc2Cl)CCN1C1CCN(C(=O)c2ccc(C#CC(C)(C)NC(=O)OC(C)(C)C)cc2)CC1` [Compound 123] belongs 25 to 100 nM.
As to `CC[C@H]1CN(c2ncc(-c3ncon3)cc2Cl)CCN1C1CCN(Cc2ccc(Cl)cc2F)CC1` [Compound 144], the IC50 was over 100 nM.
As for `CC[C@H]1CN(c2ncc(-c3ncc[nH]3)cc2Cl)CCN1C1CCN(C(=O)C2(c3ccc(Cl)cc3)CC2)CC1` [Compound 154], the figure is over 100 nM; as for `CC[C@H]1CN(c2ncc(-c3ncc[nH]3)cc2Cl)CCN1C1CCN([C@@H](C(=O)NCC2CC2)c2ccc(Cl)cc2)CC1` [Compound 107], 25 to 100 nM; as for `CC[C@H]1CN(c2ncc(-c3nc(C(O)C(F)(F)F)c[nH]3)cc2Cl)CCN1C1CCN(Cc2ccc(Cl)cc2F)CC1` (some centres unmarked) [Compound 80], under 25 nM.
To `CC[C@H]1CN(c2ncc(-c3nccn3CCC(=O)c3ccc(Cl)cc3)cc2Cl)CCN1C1CCN(CCC(=O)c2ccc(Cl)cc2)CC1` [Compound 165] belongs over 100 nM; to `CC[C@H]1CN(c2ncc(-c3ncc[nH]3)cc2Cl)CCN1C1CCN(C(=O)c2ccc(Cl)cc2O)CC1` [Compound 78], under 25 nM; to `CC[C@H]1CN(c2ncc(C3=NCCN3)cc2Cl)CCN1C1CCN(C(=O)c2ccc(C#CC(C)(C)O)cc2)CC1` [Compound 104], 25 to 100 nM.
To `CC[C@H]1CN(c2ncc(-c3ncc[nH]3)cc2Cl)CCN1C1CCN(Cc2ccc(Cl)cc2-c2ncc[nH]2)CC1` [Compound 28] belongs under 25 nM; to `CC[C@H]1CN(c2ncc(-c3ncc[nH]3)cc2Cl)CCN1C1CCN(C(=O)c2ccc(C#CC(C)(C)NS(C)(=O)=O)cc2)CC1` [Compound 171], over 100 nM; to `CC[C@H]1CN(c2ncc(-c3ncc[nH]3)cc2Cl)CCN1C1CCN(C(=O)c2ccc(-n3cccn3)cc2)CC1` [Compound 102], 25 to 100 nM.
Compound `CC[C@H]1CN(c2ncc(-c3ncc[nH]3)cc2Cl)CCN1C1CCN(C(=O)c2ccc(Br)cc2)CC1` [Compound 41] had an IC50 of under 25 nM.
For the compound `CC[C@H]1CN(c2ncc(-c3ncc[nH]3)cc2Cl)CCN1C1CCN([C@@H](C(=O)NCC(F)(F)F)c2ccc(Cl)cc2)CC1` [Compound 99], the IC50 is under 25 nM.
To `CC[C@H]1CN(c2ncc(C3=NCCCN3)cc2Cl)CCN1C1CCN(C(=O)c2ccc(Cl)cc2)CC1` [Compound 118] belongs 25 to 100 nM.
To `CC[C@H]1CN(c2ncc(-c3ncc[nH]3)cc2Cl)CCN1C1(C)CCN(C(C(=O)OC)c2ccc(Cl)cc2)CC1` (some centres unmarked) [Compound 128] belongs 25 to 100 nM; to `CC[C@H]1CN(c2ncc(C3=NCCN3)cc2Cl)CCN1C1CCN(C(C(=O)OC)c2ccc(Cl)cc2)CC1` (some centres unmarked) [Compound 63], under 25 nM.
`CC[C@H]1CN(c2ncc(-c3ncc[nH]3)cc2Cl)CCN1C1CCN(C(=O)c2ccc(-n3cccc3)nc2)CC1` [Compound 81] displayed an IC50 of under 25 nM.
In the case of `CC[C@H]1CN(c2ncc(-c3ncc[nH]3)cc2Cl)CCN1C1CCN(Cc2ccc(Cl)cc2C(C)(C)O)CC1` [Compound 31], the IC50 is under 25 nM.
For `CC[C@H]1CN(c2ncc(-c3ncc[nH]3)cc2Cl)CCN1C1CCN(Cc2ccc(C#CC(C)(C)NS(C)(=O)=O)cc2)CC1` [Compound 137], the IC50 was over 100 nM.
To `CC[C@H]1CN(c2ncc(-c3ncc[nH]3)cc2Cl)CCN1C1CCN([C@H](C(N)=O)c2ccc(Cl)cc2)CC1` [Compound 89] belongs under 25 nM; to `CC[C@H]1CN(c2ncc(-c3ncc[nH]3)cc2Cl)CCN1C1CCN(C(=O)c2ccc(Cl)nc2N)CC1` [Compound 46], under 25 nM.
To `CC[C@H]1CN(c2ncc(-c3cnco3)cc2Cl)CCN1C1CCN(Cc2ccc(Cl)cc2)CC1` [Compound 108] belongs 25 to 100 nM.
For the compound `CC[C@H]1CN(c2ncc(-c3ncc[nH]3)cc2Cl)CCN1C1CCN([C@@H](C(=O)OC)c2ccc(Cl)cc2)CC1` [Compound 35], the IC50 was under 25 nM.
As for `CC[C@H]1CN(c2ncc(-c3ncc[nH]3)cc2Cl)CCN1C1CCN(CC(=O)c2ccc(Cl)cc2)CC1` [Compound 164], the figure is over 100 nM.
As for `CC[C@H]1CN(c2ncc(-c3nccn3S(C)(=O)=O)cc2Cl)CCN1C1CCN(Cc2ccc(Cl)cc2F)CC1` [Compound 121], the figure is 25 to 100 nM; as for `CC[C@H]1CN(c2ncc(-c3ncc[nH]3)cc2Cl)CCN1C1CCN(C(=O)c2ccc(C#N)cc2)CC1` [Compound 74], under 25 nM; as for `CC[C@H]1CN(c2ncc(C3=NCCN3)cc2Cl)CCN1C1CCN(Cc2ccc(C#CCOC)cc2)CC1` [Compound 34], under 25 nM.
As for `CC[C@H]1CN(c2ncc(-c3ncc[nH]3)cc2Cl)CCN1C1CCN(Cc2ccc(-n3cccn3)cc2)CC1` [Compound 19], the figure is under 25 nM; as for `CC[C@H]1CN(c2ncc(C3=NC(C)CN3)cc2Cl)CCN1C1CCN(C(=O)c2ccc(Cl)cc2N)CC1` (some centres unmarked) [Compound 45], under 25 nM; as for `CC[C@H]1CN(c2ncc(-c3ncc[nH]3)cc2Cl)CCN1C1CCN(Cc2ccc(C#CC(C)(C)N)cc2)CC1` [Compound 134], over 100 nM.
Take `CC[C@H]1CN(c2ncc(-c3ncc[nH]3)cc2Cl)CCN1C1CCN([C@@H](C(N)=O)c2ccc(Cl)cc2)CC1` [Compound 91]: the IC50 is under 25 nM.
As for `CC[C@H]1CN(c2ncc(-c3nnco3)cc2Cl)CCN1C1CCN(Cc2ccc(Cl)cc2F)CC1` [Compound 27], the figure is under 25 nM.
